Source: patent publication US20040013649A1, “Cancer vaccines and methods of using the same” (Inex Pharmaceuticals Corporation, priority 2002, published 2004)
“Also recorded” adds a separate entry of the source.

Tests used:
[1] = tested on: IL-12, IL-6, IFN-γ and MCP-1; experiment: plasma cytokine levels after i.v. injection; assay type: in vivo, ICR mice; settings: for stimulation of plasma IL-6, IL-12, IFN-γ and MCP-1: encapsulated in DSPC:Chol:DODAP:PEG-CER14 20:45:25:10, i.v.
Experimental: As noted above, with non-lipid encapsulated oligonucleotides the backbone is traditionally modified so as to reduce molecular degradation by nucleases. However, on encapsulation, such a modification is no longer required to prevent degradation. To establish the effect of a different phosphate backbone on cytokine stimulation induced by lipid encapsulation, mice were injected with oligonucleotides having both PO and PS backbones, and cytokine stimulation was measured over a series of points in time (as shown in FIG. 6 and 7B) and over a sliding dosage scale as shown in FIG. 7A. In this experiment ICR mice were injected i.v. with a 20 mg ODN/kg dose of free PO ODN1, encapsulated PO-ODN1 and encapsulated PS-ODN1. […] Cytokine stimulation is generally indicative of a cellular immune response as is a chemokine response in MCP-1. Oligonucleotides were encapsulated in a lipid particle composed of DSPC:Chol:DODAP:PEG-CER14 in a ratio of 20:45:25:10.

[2] = tested on: leukocytes bearing the activation marker CD69; experiment: in vitro stimulation of CD69 on leukocytes in mouse whole blood; assay type: cell-based; settings: oligonucleotide encapsulated in POPC:CHOL:DODMA:PEGDMG 20:45:25:10
Experimental: (§1) CD69 is a cell activation marker, which quantifies the activation of NK cells, B cells and monocytes. Expression of CD69 on NK cells indicates cell activation and production of IFN-γ, which is important to inducing a Th-1 immune response. Free and encapsulated ODN1 and 2 were tested in vitro and in vivo for their ability to induce CD69 expression. A dose of 0.1 mg/ml of ODN2 and 10 mg/ml ODN1 were used in vitro and 10 mg/kg of ODN2 and 20 mg/kg of ODN1 in vivo. Each oligonucleotide was encapsulated in a lipid particle composed of POPC:CHOL:DODMA:PEGDMG in a ratio of 20:45:25:10.
FIG. 1 illustrates the in vitro stimulation of leukocytes bearing the activation marker CD69 from treating mouse whole blood with free oligonucleotides and encapsulated oligonucleoties, specifically ODN1 and 2. When mouse whole blood was treated in vitro with free oligonucleotides there was a dose responsive increase in the amount of CD69 positive B-cells, monocytes and to some extent, NK cells, according to the amount of free oligonucleotide used 15 hours after treatment. […] However, when these same oligonucleotides were encapsulated in a lipid vesicle, the in vitro stimulation of CD69 production on these same cell types was reduced or abolished altogether.

B16 cells = experiment: TRP-2 peptide vaccination, B16 pulmonary metastases; assay type: in vivo, mice; settings: SC weekly ×3, then B16 cells IV
Experimental: TRP-2 and gp100 studies were conducted using the B16/BL6 murine melanoma model. B16 cells (1.0×105) were injected IV in a volume of […]. Typically, animals were vaccinated weekly for 2-3 injections and B16 cells were then administered 1-2 days after the final vaccination. Animals were terminated between days 14-18 post-B16 injection, lungs were removed, and metastases were counted using a stereomicroscope.
TRP-2 peptide was mixed with various adjuvant formulations and was administered SC weekly (×3), followed by an IV administration of B16 cells, which aggressively seed to the lung to form numerous micro metastases. […] CFA is a balanced Th1/Th2 and gave a modest response (mean=46), consistent with the E.G7-OVA studies.

E.G7-OVA = experiment: prophylactic efficacy of OVA / OVA257-264 vaccination, E.G7-OVA model; assay type: in vivo, C57/BL6 mice; set-up: anti-tumor activity / antigen specific efficacy / adjuvant activity following prophylactic vaccination: dose or concentration left out as unconfirmed; settings: for efficacy of ODN sequences: LNA (encapsulated) forms, FIG. 35; for prophylactic effect on tumor growth: OVA257-264 peptide, LNA containing ODN 30 (PO), SC for 2 weeks, FIG. 31; for anti-tumor activity: antigen alone, once weekly vaccination, 2 injections
Experimental: Vaccinations. B6 mice were vaccinated subcutaneously (SC) with […] per injection. Dosing schedules were either q7dx2 or q4dx4 and are indicated in the individual figure legends. CFA mixtures were very viscous and had to be given with a larger gauge syringe. For humoral studies, a prime (day 0) and boost (day 14) strategy was used and blood samples were collected at various times by tail nicking.
Efficacy studies. E.G7-OVA or EL-4 thymoma cell lines were used throughout the study. These cells were cultured in vitro according to established methods. For tumor studies, 2.5×106 E.G7-OVA cells were injected subcutaneously in […] of PBS containing 1% FCS. Tumor measurements were made by repeated perpendicular measurements of tumor dimensions and using the formula: […]
Full-length OVA and the immunodominant cytotoxic T lymphocyte (CTL) peptide epitope (OVA257-264) were used to evaluate cell mediated immune responses and the prophylactic and therapeutic efficacy of OVA vaccination against the E.G7-OVA transfected cell line, using LNA both as an adjuvant and as the basis for a cancer vaccine formulation. LNA formulations for this experiment were prepared using DSPC:Chol:DODAP:PEGCer14 at a ration of 25:45:20:10
The anti-tumor activity of OVA and OVA257-264 were examined against the murine thymoma cell line, E.G7-OVA, implanted subcutaneously (SC) in C57/BL6 mice. […] Given the activity observed with the protein or peptide alone, this dose and schedule represents a useful model to evaluate adjuvants designed to boost the immune response against OVA and/or OVA257-264.
To examine LNA formulations as adjuvants, the impact of three variables were evaluated on vaccination and efficacy in the prophylactic E.G7-OVA model: (1) the activity of free vs. encapsulated ODN 1, (2) phosphodiester (PO) vs phosphorothioate (PS) ODN, and (3) full-length OVA protein vs single-epitope peptide OVA257-264 (FIGS. 30A and B). In this set of studies, free and encapsulated ODN 1 was simply mixed with antigen and administered SC near the nape of the neck. ODN and antigen doses in these studies were […], respectively.

[3] = tested on: leukocytes bearing the activation marker CD69; experiment: in vivo stimulation of the CD69 marker after injection; set-up: species or system ICR mice; settings: lipid encapsulated oligonucleotide; 10 mg/kg ODN2, 20 mg/kg ODN1; 16 and 24 hours after injection
Experimental: as §1
When the same oligonucleotides were tested in vivo, however, surprising results were obtained. FIG. 2 illustrates that in vivo treatment of ICR mice by injection with encapsulated or free oligonucleotides produces results that are contrary to those obtained in vitro.

[4] = tested on: EG.7 Ova expressing tumor cells; experiment: prophylactic anti-tumor efficacy, EG7-OVA tumor model, q7d×3; assay type: in vivo, C57BI/6 mice
Experimental: Efficacy studies. E.G7-OVA or EL-4 thymoma cell lines were used throughout the study. These cells were cultured in vitro according to established methods. […] Tumor measurements were made by repeated perpendicular measurements of tumor dimensions and using the formula: […]
Anti-tumor efficacy induced by subcutaneous immunization was assessed in C57BI/6 (5 animals per group) in a prophylactic immunization model. Mice were immunized subcutaneously with 3 injections on a q7d×3 dosing regimen on Days 0, 7 and 14 at a dose of 100 μg oligonucleotide and 20 μg of OVA antigen dose. […] Mice were monitored 3 times weekly to assess tumor growth and weight gain. Control mice were injected with one of PBS or HBS and […] of OVA antigen on the same schedule described above. Oligonucleotides were encapsulated in a lipid particle having a lipid composition of one of POPC: CHOL: DODAP:PEGCer14 or DSPC: CHOL: DODAP:PEGCer14 each in a ratio of 25:45:20:10. All comparisons of methylated and unmethylated oligonucleotides were done using like lipid particles. Results from these efficacy experiments are detailed in FIGS. 12-15, 18-21, and 25-28. Day 0 on each of the Figures is the day each animal was challenged with the tumor.

dendritic cells = experiment: expansion of dendritic cells (CD11c, DEC205) in spleen, blood and lymph nodes; assay type: in vivo, ICR mice; settings: lipid encapsulated; single i.v. injection 20 mg/kg; versus PBS control = 100%
Experimental: ICR mice were immunized with a single intravenous injection of encapsulated oligonucleotides at a dose of 20 mg/kg and the control ICR mouse was injected with PBS. […] Each of these markers are specific to dendritic cells though they may represent different cell sub-populations. In each of FIGS. 4 and 5 the control was plotted as equivalent to 100% and the effect of ODN1m for each backbone configuration was plotted as a percentage of that control.

[5] = TRP-2 peptide alone or mixed with free ODN or other adjuvant
[6] = encapsulated ODN (LNA) mixed with TRP-2 peptide
[7] = encapsulated form versus free at the same dose

ODN1: 5′-TAACGTTGAGGGGCAT-3, SEQ ID NO: 2, human c-myc (tested as both phosphodiester and phosphorothioate backbone forms, lipid-encapsulated, further chemistry not given here)
late IFN-γ peak ([1]; encapsulated PS oligonucleotides, 6 days after treatment): produced a strong IFN-γ peak; also recorded: produced an IFN-gamma peak | stimulation of plasma IL-6, IL-12, IFN-γ and MCP-1 [1]: increased IL-12 induction | stimulation of CD69 positive B-cells, monocytes and NK cells [2]: reduced the stimulation of CD69 on NK cells below the control level | mean number of metastases (B16 cells; [5]): 37 | mean number of metastases (B16 cells; [6]): 6 | efficacy of ODN sequences (E.G7-OVA): strongest responses | antigen specific efficacy / adjuvant activity following prophylactic vaccination (E.G7-OVA; free or encapsulated ODN 1 mixed with OVA or OVA257-264, SC): encapsulation of ODN 1 resulted in increased antigen specific efficacy | stimulation of the CD69 marker in vivo [3]: able to stimulate production of CD69 on NK cells | reduction in tumor growth ([4]; free ODN, 100 μg ODN + 20 μg OVA s.c. q7d×3, tumor challenge Day 21): showed a greater reduction in tumor growth than their methylated counterparts | reduction in tumor growth ([4]; lipid encapsulated ODN, PO backbone, 100 μg ODN + 20 μg OVA s.c. q7d×3): lost its efficacy | number of animals remaining in the study ([4]; lipid encapsulated ODN, FIG. 19B): essentially identical throughout the study | expansion of CD11c positive dendritic cells (dendritic cells): stimulated the expansion of CD11c positive cells in spleen and whole blood | expansion of DEC205 positive dendritic cells (dendritic cells): stimulate the expansion of DEC205 positive cells in spleen, whole blood and lymph node

ODN14: 5′-AACC GTT GAG GGG CAT-3′, SEQ ID NO: 14, human c-myc (AACCGTTGAGGGGCAT; tested as both phosphodiester and phosphorothioate backbone forms, lipid-encapsulated, further chemistry not given here)
increase in IFN-γ [1, 7]: 20 fold | increase in IL-6 [1, 7]: 1000 fold | increase in peak plasma IL-12 [1, 7]: 2.5 fold | stimulation of plasma IL-6, IL-12, IFN-γ and MCP-1 [1]: increased IL-12 induction

ODN 3: 5′-TAAGCATACGGGGTGT-3, SEQ ID NO: 3; non-CpG ODN control sequence for ODN 1 (chemistry not given here)
mean number of metastases (B16 cells; [5]): 83 | mean number of metastases (B16 cells; [6]): 23

ODN 29: 5′-CAACGTTATGGGGAGA-3′, SEQ ID NO: 29; non-antisense version of ODN 1 (chemistry not given here)
efficacy of ODN sequences (E.G7-OVA): strongest responses

TRP-2 peptide: immunodominant MHC class I peptide epitope of TRP-2, VYDFFVWL [reference compound]
mean number of metastases (B16 cells; [5]): 82

mOVA: acylated OVA257-264 peptide; modified peptide with stearoyl group at the N-terminus [reference compound]
prophylactic effect on tumor growth (E.G7-OVA): no prophylactic effect | anti-tumor activity (E.G7-OVA): no anti-tumor activity was observed

pOVA: immunodominant CTL peptide epitope OVA257-264 (ESIINFEK; UniProt P01012 257-264, looked up, fragment) [reference compound]
prophylactic effect on tumor growth (E.G7-OVA): no prophylactic effect | anti-tumor activity (E.G7-OVA): no anti-tumor activity was observed
